In patent publication US10087188B2, “Benzamide imidazopyrazine Btk inhibitors” (MERCK SHARP & DOHME CORP., priority 2014, dated 2018):
Like-named read-outs stand apart in the source and are kept apart here.

Columns and labels:
[1] = molecular target: BTK enzyme (recombinant full-length BTK, hBTK) (Homo sapiens (Human), UniProt Q06187); experiment: Btk enzyme activity assay, LANCE TR-FRET; assay type: biochemical; conditions: 50 pM hBTK, 2 μM biotin-A5-peptide, 25 μM ATP; 60 minute compound & enzyme incubation; read-out: BTK binding IC50
BTK enzyme (recombinant full-length BTK, hBTK), sequence (Q06187 whole entry): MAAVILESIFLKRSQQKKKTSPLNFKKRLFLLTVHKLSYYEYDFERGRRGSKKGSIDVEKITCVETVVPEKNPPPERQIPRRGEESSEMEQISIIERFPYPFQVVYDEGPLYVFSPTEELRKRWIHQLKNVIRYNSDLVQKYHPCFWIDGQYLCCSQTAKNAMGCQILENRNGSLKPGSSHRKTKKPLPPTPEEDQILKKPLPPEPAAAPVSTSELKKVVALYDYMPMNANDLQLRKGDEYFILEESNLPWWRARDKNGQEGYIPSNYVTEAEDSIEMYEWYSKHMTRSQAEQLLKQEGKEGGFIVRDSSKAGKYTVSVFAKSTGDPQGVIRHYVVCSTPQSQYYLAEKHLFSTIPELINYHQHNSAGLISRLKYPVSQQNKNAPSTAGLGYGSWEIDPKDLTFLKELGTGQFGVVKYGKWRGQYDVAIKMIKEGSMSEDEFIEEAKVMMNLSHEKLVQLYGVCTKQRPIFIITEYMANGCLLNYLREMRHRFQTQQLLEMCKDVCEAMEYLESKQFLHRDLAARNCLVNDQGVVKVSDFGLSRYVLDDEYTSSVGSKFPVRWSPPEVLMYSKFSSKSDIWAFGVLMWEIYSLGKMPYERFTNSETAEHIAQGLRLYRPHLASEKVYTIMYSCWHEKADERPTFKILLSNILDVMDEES
Protocol: Btk Enzyme Activity Assay Methods
BTK enzymatic activity was determined with the LANCE (Lanthanide Chelate Excite) TR-FRET (Time-resolved fluorescence resonance energy transfer) assay. […] After 60 minutes incubation with detection reagents, reaction plates were read on a PerkinElmer EnVision plate reader using standard TR-FRET protocol.

HeLa cells = experiment: [3H] Adenosine uptake assay; assay type: cell-based; conditions: accumulation of tritiated adenosine into HeLa cells, compound concentration range 10 μM to 0.032 nM, read-out: ADU inhibition IC50 (adenosine uptake inhibition potency)
How it was run: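 Accumulation of tritiated adenosine in adherent HeLa cells, detected by scintillant-plate coincidence counting, gives IC50 via 4-parameter robust fit. Compound (constant 0.25% DMSO) applied 30 min ahead, then 60 min radiolabel exposure (added from 500 nM solution), ambient conditions, HBSS with 5% FBS.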

Row | SMILES | IC50 [1] [nM] | IC50 (HeLa cells; Homo sapiens, HeLa) [µM] | IC50 (HeLa cells) [µM]
1 | CC1(C(=O)O)CCC(N2CCC[C@@H](c3nc(-c4ccc(C(=O)Nc5cc(C(F)(F)F)ccn5)cc4F)c4c(N)nccn34)C2)CC1 (stereo partly drawn) [Example 182, 4-{(3R)-3-[8-amino-1-(2-fluoro-4-{[4-(trifluoromethyl)pyridin-2-yl]carbamoyl}phenyl)imidazo [1,5-a]pyrazin-3-yl]piperidin-1-yl}-1-methylcyclohexanecarboxylic acid] | 1.9 | 0.179 | 
2 | COc1cc(C(=O)Nc2cc(C(F)(F)F)ccn2)cc(F)c1-c1nc([C@@H]2CC[C@](C)(C(=O)O)C2(C)C)n2ccnc(N)c12 [Example 115, (1S,3R)-3-[8-amino-1-(2-fluoro-6-methoxy-4-{[4-(trifluoromethyl)pyridin-2-yl]carbamoyl}phenyl)imidazo[1,5-a]pyrazin-3-yl]-1,2,2-trimethylcyclopentane carboxylic acid] | 0.26 | 8.84 | 
3 | C[C@]1(C(=O)O)CC[C@H](N2CCO[C@@H](c3nc(-c4ccc(C(=O)Nc5cc(C(F)F)ccn5)cc4)c4c(N)ncc(Cl)n34)C2)CC1 [Example 195, trans-4-{(2R)-2-[8-amino-5-chloro-1-(4-{[4-(difluoromethyl)pyridin-2-yl]carbamoyl}phenyl)imidazo [1,5-a]pyrazin-3-yl]morpholin-4-yl}-1-methylcyclohexanecarboxylic acid] | 1 | 2.44 | 
4 | Nc1nccn2c([C@@H]3CCN[C@@H](C(=O)O)C3)nc(-c3ccc(C(=O)Nc4cc(C(F)(F)F)ccn4)cc3)c12 [Example 33, (2R,4R)-4-[8-amino-1-(4-{[4-(trifluoromethyl)pyridin-2-yl]carbamoyl}phenyl)imidazo[1,5-a]pyrazin-3-yl]piperidine-2-carboxylic acid] | 4.4 | 6.8 | 
5 | CCOc1cc(C(=O)Nc2cc(C3CC3)ccn2)cc(F)c1-c1nc([C@@H]2CC[C@](C)(C(=O)O)C2(C)C)n2ccnc(N)c12 [Example 121, (1S,3R)-3-(8-amino-1-{4-[(4-cyclopropylpyridin-2-yl)carbamoyl]-2-ethoxy-6-fluorophenyl}imidazo [1,5-a]pyrazin-3-yl)-1,2,2-trimethylcyclopentane carboxylic acid] | 0.37 | 7.32 | 
6 | CC(C)(C(=O)O)C1CCC(c2nc(-c3ccc(C(=O)Nc4cc(C(F)(F)F)ccn4)cc3)c3c(N)nccn23)C1 (centres unmarked) [Example 97, 2-{3-[8-amino-1-(4-{[4-(trifluoromethyl)pyridin-2-yl]carbamoyl}phenyl)imidazo[1,5-a]pyrazin-3-yl]cyclopentyl}-2-methylpropanoic acid] | 0.87 |  | 7.53
7 | CC(C)(C(=O)O)N1CC(=O)N2C[C@H](c3nc(-c4ccc(C(=O)Nc5cc(C(F)(F)F)ccn5)cc4)c4c(N)nccn34)CC[C@H]2C1 [Example 43, 2-{(7R,9aS)-7-[8-amino-1-(4-{[4-(trifluoromethyl)pyridin-2-yl]carbamoyl}phenyl)imidazo[1,5-a]pyrazin-3-yl]-4-oxooctahydro-2H-pyrido[1,2-a]pyrazin-2-yl}-2-methylpropanoic acid] | 0.41 | 4.19 | 
8 | CC(C)[C@@]1(C(=O)O)CC[C@@H](N2C[C@H](c3nc(-c4ccc(C(=O)Nc5cc(C(F)(F)F)ccn5)cc4F)c4c(N)ncc(Cl)n34)OC[C@@H]2C)C1 [Example 202, (1R,3R)-3-{(2R,5S)-2-[8-amino-5-chloro-1-(2-fluoro-4-{[4-(trifluoromethyl)pyridin-2-yl]carbamoyl}phenyl)imidazo [1,5-a]pyrazin-3-yl]-5-methylmorpholin-4-yl}-1-(1-methylethyl) cyclopentanecarboxylic acid] | 0.76 | 4.58 | 
9 | CC1(C(=O)O)CCC(c2nc(-c3ccc(C(=O)Nc4cc(C(F)(F)F)ccn4)cc3)c3c(N)ncc(Cl)n23)CC1 (centres unmarked) [Example 162, 4-[8-amino-5-chloro-1-(4-{[4-(trifluoromethyl)pyridin-2-yl]carbamoyl}phenyl)imidazo[1,5-a]pyrazin-3-yl]-1-methylcyclohexane-carboxylic acid] | 2.3 | 5.54 | 
10 | CCOc1cc(C(=O)Nc2cc(C(F)(F)F)ccn2)ccc1-c1nc([C@H]2CC[C@](C(=O)O)(C(C)C)C2)n2ccnc(N)c12 [Example 62, (1R,3S)-3-[8-amino-1-(2-ethoxy-4-{[4-(trifluoromethyl)pyridin-2-yl]carbamoyl}phenyl)imidazo[1,5-a]pyrazin-3-yl]-1-(1-methylethyl) cyclopentane-carboxylic acid] | 12.2 | 10 | 
11 | C[C@@]1(C(=O)O)CC[C@@](C)(c2nc(-c3ccc(C(=O)Nc4cc(C(F)(F)F)ccn4)cc3Cl)c3c(N)nccn23)C1 [Example 132, (1R,3R)-3-[8-amino-1-(2-chloro-4-{[4-(trifluoromethyl)pyridin-2-yl]carbamoyl}phenyl)imidazo[1,5-a]pyrazin-3-yl]-1,3-dimethylcyclopentane carboxylic acid] | 0.25 | 3.16 | 
12 | CCOc1cc(C(=O)Nc2cc(C(F)(F)F)ccn2)c(F)cc1-c1nc(C2(C)CCC(C)(C(=O)O)CC2)n2ccnc(N)c12 (centres unmarked) [Example 120, 4-[8-amino-1-(2-ethoxy-5-fluoro-4-{[4-(trifluoromethyl)pyridin-2-yl]carbamoyl}phenyl)imidazo[1,5-a]pyrazin-3-yl]-1,4-dimethylcyclohexane-carboxylic acid] | 4 | 10 | 
13 | Nc1nccn2c(-c3ccc(F)c(C(=O)O)c3)nc(-c3ccc(C(=O)Nc4cc(C(F)(F)F)ccn4)cc3)c12 [Example 24, 5-[8-amino-1-(4-{[4-(trifluoromethyl)pyridin-2-yl]carbamoyl}phenyl)imidazo[1,5-a]pyrazin-3-yl]-2-fluorobenzoic acid] | 1 | 10 | 

More lines, in order of falling IC50 [1], values ahead:

Row | IC50 [1] [nM] | IC50 (HeLa cells; Homo sapiens, HeLa) [µM] | IC50 (HeLa cells) [µM] | SMILES
14 | 57.2 |  | 10 | CC(C)C1(C(=O)O)CCC(C)(c2nc(-c3ccc(C(=O)Nc4cc(C(F)(F)F)ccn4)cc3)c3c(N)nccn23)C1 (centres unmarked) [Example 145, 3-[8-amino-1-(4-{[4-(trifluoromethyl)pyridin-2-yl]carbamoyl}phenyl)imidazo[1,5-a]pyrazin-3-yl]-3-methyl-1-(1-methylethyl) cyclopentane-carboxylic acid]
15 | 7.5 | 10 |  | CCOc1cc(C(=O)Nc2cc(C(F)(F)F)ccn2)ccc1-c1nc([C@@H]2CC[C@@](C(=O)O)(C(C)C)C2)n2ccnc(N)c12 [Example 60, (1S,3R)-3-[8-amino-1-(2-ethoxy-4-{[4-(trifluoromethyl)pyridin-2-yl]carbamoyl}phenyl)imidazo[1,5-a]pyrazin-3-yl]-1-(1-methylethyl) cyclopentane-carboxylic acid]
16 | 5.9 | 2.02 |  | Cc1cnc(N)c2c(-c3ccc(C(=O)Nc4ccccn4)cc3)nc([C@H]3CN([C@H]4CC[C@](C)(C(=O)O)CC4)CCO3)n12 [Example 199, trans-4-[(2R)-2-{8-amino-5-methyl-1-[4-(pyridin-2-ylcarbamoyl)phenyl]imidazo [1,5-a]pyrazin-3-yl}morpholin-4-yl]-1-methylcyclohexanecarboxylic acid]
17 | 1.8 | 10 |  | CCOc1cc(C(=O)Nc2cc(C(F)(F)F)ccn2)ccc1-c1nc([C@H]2CCC[C@](C(=O)O)(C(C)C)C2)n2ccnc(N)c12 [Example 90, (1R,3S)-3-[8-amino-1-(2-ethoxy-4-{[4-(trifluoromethyl)pyridin-2-yl]carbamoyl}phenyl)imidazo[1,5-a]pyrazin-3-yl]-1-(1-methylethyl) cyclohexane-carboxylic acid]
18 | 1.5 | 5.08 |  | CC1(C)CC(c2nc(-c3ccc(C(=O)Nc4cc(C(F)(F)F)ccn4)cc3)c3c(N)nccn23)CCC1C(=O)O (centres unmarked) [Example 20, 4-(8-amino-1-(4-((4-(trifluoromethyl)pyridin-2-yl)carbamoyl)phenyl)imidazo[1,5-a]pyrazin-3-yl)-2,2-dimethylcyclohexanecarboxylic acid]
19 | 0.74 | 0.781 |  | CC(C)[C@]1(C(=O)O)CC[C@@H](c2nc(-c3ccc(C(=O)Nc4cc(C(F)(F)F)ccn4)cc3)c3c(N)ncc(Cl)n23)C1 [Example 106, (1S.3R)-3-[8-amino-5-chloro-1-(4-{[4-(trifluoromethyl)pyridin-2-yl]carbamoyl}phenyl)imidazo[1,5-a]pyrazin-3-yl]-1-(1-methylethyl) cyclopentane-carboxylic acid]
20 | 0.58 | 8.55 |  | CCOc1cc(C(=O)Nc2cc(C(F)(F)F)ccn2)ccc1-c1nc([C@H]2CC[C@@](C(=O)O)(C(C)C)C2)n2ccnc(N)c12 [Example 63, (1S,3S)-3-[8-amino-1-(2-ethoxy-4-{[4-(trifluoromethyl)pyridin-2-yl]carbamoyl}phenyl)imidazo[1,5-a]pyrazin-3-yl]-1-(1-methylethyl) cyclopentane-carboxylic acid]
21 | 0.43 | 6.79 |  | CCOc1cc(C(=O)Nc2cc(C(F)(F)F)ccn2)ccc1-c1nc([C@@H]2C[C@@H]3[C@H](C2)[C@H]3C(=O)O)n2ccnc(N)c12 [Example 135, (1R,3R,5S,6r)-3-[8-amino-1-(2-ethoxy-4-{[4-(trifluoromethyl)pyridin-2-yl]carbamoyl}phenyl)imidazo[1,5-a]pyrazin-3-yl]bicyclo[3.1.0] hexane-6-carboxylic acid]
22 | 0.16 | 0.623 |  | Nc1nccn2c(C34CCC(C(=O)O)(CC3)CC4)nc(-c3ccc(C(=O)Nc4cc(C(F)(F)F)ccn4)cc3F)c12 [Example 170, 4-[8-amino-1-(2-fluoro-4-{[4-(trifluoromethyl)pyridin-2-yl]carbamoyl}phenyl)imidazo[1,5-a]pyrazin-3-yl]bicyclo[2.2.2] octane-1-carboxylic acid]
